Laboratory results taken from patent US7282356B2, “D-aminoacylase mutants” (Daicel Chemical Industries, Ltd., priority 2002, dated 2007).

Assays:
[1] = system: CC(=O)N[C@H](Cc1c[nH]c2ccccc12)C(=O)O; experiment: Inhibition/kinetics test of purified mutant D-aminoacylase R374-0017; assay type: biochemical, Alcaligenes denitrificans subsp. xylosoxydans MI-4; conditions: other: 30° C., pH7.5, for N-acetyl-D-tryptophan, pH 7.5
Method: (§1) The enzyme reaction can be achieved by incubating 1.0 ml of a reaction solution containing 20 mM N-acetyl-D-tryptophan (Sigma), 50 mM Tris-hydrochloride buffer (pH 7.5), and an enzyme solution at 30° C. for 10 minutes. Then, the reaction is stopped by adding 0.5 ml of a stop solution containing TCA (comprising 0.11 M trichloroacetic acid, 0.22 M sodium acetate, and 0.33 M acetic acid). The amount of D-tryptophan produced can be determined by TNBS method (Biosci. Biotech. Biochem., 58, 24 (1994)).
(§2) For example, 0.25 ml of 100 mM Na2B4O7 is added to 0.25 ml of the stop solution, 10 μl of 110 mM TNBS (trinitrobenzenesulfonic acid) solution is added to the mixed solution, and immediately thereafter, the resulting mixture is stirred. After the mixture is allowed to stand for five minutes, 1 ml of 100 mM NaHPO4 containing 1.5 mM Na2SO3 is added to the mixture to stop the color reaction. Then, the absorbance of the solution is determined at 420 nm. One unit of the enzyme activity is defined as the amount of enzyme that catalyzes the production of 1 μmol of D-tryptophan at 30° C. for one minute.
(§3) The rate constants of the reaction with N-acetyl-D-tryptophan and N-acetyl-L-tryptophan that is catalyzed by the thus-purified wild-type derived from Alcaligenes denitrificans subsp. xylosoxydans MI-4 or mutant D-aminoacylases of the present invention, can be determined according to the methods described in “Lectures for Biochemical Experiments 21: Introduction to Experimental Approach to Enzyme Kinetics” and “Basic Experimental Methods for Proteins and Enzymes, 2nd Ed.” Michaelis constant is represented by Km; the maximal rate is Vmax; inhibition constant is Ki; the constant for reaction inhibition by excess substrate is Ks′.
(§4) The mutant D-aminoacylase R374-0017 was purified from an E. coli transformant having the plasmid pSL-AD09 that contains DNA encoding the mutant D-aminoacylase R374-0017 by the same method as described in Example 19.
(§5) The D-aminoacylases purified in Examples 20 to 23 were tested for the inhibition by N-acetyl-D-tryptophan and N-acetyl-L-tryptophan. The reaction rate constants for N-acetyl-D-tryptophan and N-acetyl-L-tryptophan were determined according to the methods described in “Lectures for Biochemical Experiments 21: Introduction to Experimental Approach to Enzyme Kinetics” and “Basic Experimental Methods for Proteins and Enzymes, 2nd Ed.” Michaelis constant is represented by Km; the maximal rate is Vmax; inhibition constant is Ki; the constant for reaction inhibition by excess substrate is represented by Ks′. Km and Vmax were determined from a Lineweaver-Burk reciprocal plot; Ki was determined from a second-order plot (Royer); and Ks′ was determined from a [S] −1/v plot.

[2] = system: CC(=O)N[C@H](Cc1c[nH]c2ccccc12)C(=O)O; experiment: purified protein, by the assay type; conditions: other: 30° C., pH7.5, for N-acetyl-D-tryptophan, pH 7.5
[3] = system: CC(=O)N[C@H](Cc1c[nH]c2ccccc12)C(=O)O; experiment: Inhibition/kinetics test of purified mutant D-aminoacylase 3AD-0089; assay type: biochemical, Alcaligenes denitrificans subsp. xylosoxydans MI-4; conditions: other: 30° C., pH7.5, for N-acetyl-D-tryptophan, pH 7.5
Method: as §1, §2, §3
(§6) The mutant D-aminoacylase 3AD-0089 was purified from an E. coli transformant having the plasmid pSL-AD10 that contains DNA encoding the mutant D-aminoacylase 3AD-0089 by the same method as described in Example 19.
as §5

[4] = target: T1, Alcaligenes denitrificans subsp. xylosoxydans MI-4 D-aminoacylase mutant A154-0043 (A154V of SEQ ID NO: 1) (Alcaligenes xylosoxydans xylosoxydans, UniProt P72349, A154V); experiment: Inhibition/kinetics test of purified mutant D-aminoacylase A154-0043; assay type: biochemical
T1 construct: made in house; host or cells: E. coli
Method: as §1, §2, §3
(§7) The mutant D-aminoacylase A154-0043 was purified from an E. coli transformant having the plasmid pSL-AD07 that contains DNA encoding the mutant D-aminoacylase A154-0043 by the same method as described in Example 19.
as §5

[5] = target: T2, Alcaligenes denitrificans subsp. xylosoxydans MI-4 D-aminoacylase mutant M347-0133 (M347A of SEQ ID NO: 1) (Alcaligenes xylosoxydans xylosoxydans, UniProt P72349, M347A); experiment: Inhibition/kinetics test of purified mutant D-aminoacylase M347-0133; assay type: biochemical
T2 construct: made in house; host or cells: E. coli
Method: as §1, §2, §3
(§8) The mutant D-aminoacylase M347-0133 was purified from an E. coli transformant having the plasmid pSL-AD08 that contains DNA encoding the mutant D-aminoacylase M347-0133 by the same method as described in Example 19.
as §5

[6] = target: T3, Alcaligenes denitrificans subsp. xylosoxydans MI-4 D-aminoacylase mutant R374-0017 (R374F of SEQ ID NO: 1) (Alcaligenes xylosoxydans xylosoxydans, UniProt P72349, R374F); experiment: Inhibition/kinetics test of purified mutant D-aminoacylase R374-0017; assay type: biochemical
T3 construct: made in house; host or cells: E. coli
Method: as §1, §2, §3, §4, §5

[7] = target: T4, Alcaligenes denitrificans subsp. xylosoxydans MI-4 D-aminoacylase mutant 3AD-0089 (A154V/M347A/R374F of SEQ ID NO: 1) (Alcaligenes xylosoxydans xylosoxydans, UniProt P72349, A154V/M347A/R374F); experiment: Inhibition/kinetics test of purified mutant D-aminoacylase 3AD-0089; assay type: biochemical
T4 construct: made in house; host or cells: E. coli
Method: as §1, §2, §3, §6, §5

[8] = system: Methylobacterium mesophilicum D-aminoacylase; conditions: at concentrations as high as 100 g/l; cited from earlier work
[9] = system: Nocardioides thermolilacinus D-aminoacylase; conditions: at concentrations as high as 100 g/l; cited from earlier work
[10] = target: Alcaligenes denitrificans subsp. xylosoxydans MI-4 D-aminoacylase, wild-type, SEQ ID NO: 1 (Alcaligenes xylosoxydans xylosoxydans, UniProt P72349); experiment: Inhibition/kinetics test of purified wild-type D-aminoacylase
[11] = system: CC(=O)N[C@H](Cc1c[nH]c2ccccc12)C(=O)O; experiment: Inhibition/kinetics test of purified mutant D-aminoacylase A154-0043; assay type: biochemical, Alcaligenes denitrificans subsp. xylosoxydans MI-4; conditions: other: 30° C., pH7.5, for N-acetyl-D-tryptophan, pH 7.5
Method: as §1, §2, §3, §7, §5

[12] = system: CC(=O)N[C@H](Cc1c[nH]c2ccccc12)C(=O)O; experiment: Inhibition/kinetics test of purified mutant D-aminoacylase M347-0133; assay type: biochemical, Alcaligenes denitrificans subsp. xylosoxydans MI-4; conditions: other: 30° C., pH7.5, for N-acetyl-D-tryptophan, pH 7.5
Method: as §1, §2, §3, §8, §5

[13] = D-aminoacylase activity assay (20 mM N-acetyl-D-tryptophan, TNBS method); assay type: biochemical; conditions: cell extract of E. coli JM109 transformant
Method: as §1, §2

[14] = 30° C., pH7.5, for N-acetyl-D-tryptophan
[15] = 30° C., pH7.5, substrate inhibition by N-acetyl-D-tryptophan

T4 sequence (P72349 whole entry A154V/M347A/R374F): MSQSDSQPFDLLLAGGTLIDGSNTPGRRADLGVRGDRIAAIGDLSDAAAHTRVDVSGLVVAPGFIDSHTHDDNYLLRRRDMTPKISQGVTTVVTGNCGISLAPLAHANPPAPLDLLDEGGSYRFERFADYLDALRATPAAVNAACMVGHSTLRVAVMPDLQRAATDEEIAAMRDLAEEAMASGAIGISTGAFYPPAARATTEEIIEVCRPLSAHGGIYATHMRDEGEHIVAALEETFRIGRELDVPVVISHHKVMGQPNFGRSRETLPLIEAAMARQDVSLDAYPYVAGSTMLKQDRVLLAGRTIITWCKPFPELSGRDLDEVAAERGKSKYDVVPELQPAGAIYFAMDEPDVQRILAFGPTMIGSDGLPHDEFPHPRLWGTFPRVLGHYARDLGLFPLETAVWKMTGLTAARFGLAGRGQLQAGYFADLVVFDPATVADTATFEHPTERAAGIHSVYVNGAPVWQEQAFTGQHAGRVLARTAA
T2 sequence (P72349 whole entry M347A): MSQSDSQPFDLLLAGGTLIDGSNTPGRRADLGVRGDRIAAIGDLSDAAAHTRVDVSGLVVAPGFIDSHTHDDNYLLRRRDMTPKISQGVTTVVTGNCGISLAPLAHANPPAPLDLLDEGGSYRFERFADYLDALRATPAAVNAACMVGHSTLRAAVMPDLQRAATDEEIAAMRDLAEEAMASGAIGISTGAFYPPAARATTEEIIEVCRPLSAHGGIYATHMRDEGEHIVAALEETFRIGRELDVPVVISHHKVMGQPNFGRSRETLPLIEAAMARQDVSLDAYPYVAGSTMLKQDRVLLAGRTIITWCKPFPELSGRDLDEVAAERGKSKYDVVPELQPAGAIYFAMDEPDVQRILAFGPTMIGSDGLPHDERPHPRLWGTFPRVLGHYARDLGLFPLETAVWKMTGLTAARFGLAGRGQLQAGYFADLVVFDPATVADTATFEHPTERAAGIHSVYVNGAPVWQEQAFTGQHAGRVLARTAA
T3 sequence (P72349 whole entry R374F): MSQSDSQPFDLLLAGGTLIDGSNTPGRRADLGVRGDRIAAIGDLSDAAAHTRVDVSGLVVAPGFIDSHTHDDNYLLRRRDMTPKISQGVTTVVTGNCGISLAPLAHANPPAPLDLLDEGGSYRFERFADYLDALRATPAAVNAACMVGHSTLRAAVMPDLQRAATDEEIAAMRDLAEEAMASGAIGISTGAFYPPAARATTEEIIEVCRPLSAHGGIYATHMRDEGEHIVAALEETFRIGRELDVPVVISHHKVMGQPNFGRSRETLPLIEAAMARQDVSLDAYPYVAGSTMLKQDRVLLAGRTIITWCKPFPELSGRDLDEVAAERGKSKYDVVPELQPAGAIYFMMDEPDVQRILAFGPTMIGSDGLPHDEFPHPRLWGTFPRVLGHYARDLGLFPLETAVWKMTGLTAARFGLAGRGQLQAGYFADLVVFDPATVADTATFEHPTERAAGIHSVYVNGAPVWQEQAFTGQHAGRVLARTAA
T1 sequence (P72349 whole entry A154V): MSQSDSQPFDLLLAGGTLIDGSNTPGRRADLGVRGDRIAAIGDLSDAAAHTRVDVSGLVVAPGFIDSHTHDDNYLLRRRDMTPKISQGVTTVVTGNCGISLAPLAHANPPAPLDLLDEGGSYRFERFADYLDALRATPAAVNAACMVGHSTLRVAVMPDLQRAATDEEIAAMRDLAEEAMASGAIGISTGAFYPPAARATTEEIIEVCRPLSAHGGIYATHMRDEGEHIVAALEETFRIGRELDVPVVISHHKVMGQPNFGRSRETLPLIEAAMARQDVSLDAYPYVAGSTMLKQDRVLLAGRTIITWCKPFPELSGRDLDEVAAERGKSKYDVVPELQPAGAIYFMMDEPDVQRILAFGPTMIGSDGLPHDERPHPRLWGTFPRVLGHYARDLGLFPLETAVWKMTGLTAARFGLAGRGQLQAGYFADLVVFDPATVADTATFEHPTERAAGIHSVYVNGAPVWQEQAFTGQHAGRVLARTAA

## Alcaligenes denitrificans subsp. xylosoxydans MI-4 D-aminoacylase mutant R374-0017 (R374F of SEQ ID NO: 1) (Achromobacter xylosoxidans; R374F)
[1]
  Km: 1940 µM

## Alcaligenes denitrificans subsp. xylosoxydans MI-4 D-aminoacylase, wild-type, SEQ ID NO: 1 (Achromobacter xylosoxidans)
[2]
  Km: 2530 µM

## Alcaligenes denitrificans subsp. xylosoxydans MI-4 D-aminoacylase mutant 3AD-0089 (A154V/M347A/R374F of SEQ ID NO: 1) (Achromobacter xylosoxidans; A154V/M347A/R374F)
[3]
  Km: 1460 µM

## CC(=O)N[C@H](Cc1c[nH]c2ccccc12)C(=O)O [N-acetyl-D-tryptophan]
[4]; [14]
  Vmax (Lineweaver-Burk reciprocal plot): 1031
[4]; [15]
  Ks′ (constant for reaction inhibition by excess substrate; [S]−1/v plot): 13.67
[5]; [14]
  Vmax (Lineweaver-Burk reciprocal plot): 1000
[5]; [15]
  Ks′ (constant for reaction inhibition by excess substrate; [S]−1/v plot): 77.00
[6]; [14]
  Vmax (Lineweaver-Burk reciprocal plot): 1000
[6]; [15]
  Ks′ (constant for reaction inhibition by excess substrate; [S]−1/v plot): 93.00
[7]; [14]
  Vmax (Lineweaver-Burk reciprocal plot): 357
[7]; in the presence of 99 mM N-acetyl-D-tryptophan
  substrate inhibition: not detectable
[8]
  inhibition by the substrate: hardly inhibited
[9]
  inhibition by the substrate: hardly inhibited
[10]; [14]
  Vmax (Lineweaver-Burk reciprocal plot): 685
[10]; [15]
  Ks′ (constant for reaction inhibition by excess substrate; [S]−1/v plot): 1.29

## Alcaligenes denitrificans subsp. xylosoxydans MI-4 D-aminoacylase mutant A154-0043 (A154V of SEQ ID NO: 1) (Achromobacter xylosoxidans; A154V)
[11]
  Km: 3440 µM

## Alcaligenes denitrificans subsp. xylosoxydans MI-4 D-aminoacylase mutant M347-0133 (M347A of SEQ ID NO: 1) (Achromobacter xylosoxidans; M347A)
[12]
  Km: 1420 µM

## CC(=O)N[C@@H](Cc1c[nH]c2ccccc12)C(=O)O [N-acetyl-L-tryptophan]
[4]
  Ki: 6.4 mM
[5]
  Ki: 12.3 mM
[6]
  Ki: 7.46 mM
[7]; in the presence of 89 mM N-acetyl-L-tryptophan
  competitive inhibition: not detectable
[10]
  Ki: 2.6 mM

B1: D-aminoacylase produced with the modified D-aminoacylase gene: wild-type amino acid sequence (SEQ ID NO: 1) expressed from codon-modified gene SEQ ID NO: 3 in plasmid pSL-ADD6 (protein)
chain: MSQSDSQPFDLLLAGGTLIDGSNTPGRRADLGVRGDRIAAIGDLSDAAAHTRVDVSGLVVAPGFIDSHTHDDNYLLRRRDMTPKISQGVTTVVTGNCGISLAPLAHANPPAPLDLLDEGGSYRFERFADYLDALRATPAAVNAACMVGHSTLRAAVMPDLQRAATDEEIAAMRDLAEEAMASGAIGISTGAFYPPAARATTEEIIEVCRPLSAHGGIYATHMRDEGEHIVAALEETFRIGRELDVPVVISHHKVMGQPNFGRSRETLPLIEAAMARQDVSLDAYPYVAGSTMLKQDRVLLAGRTIITWCKPFPELSGRDLDEVAAERGKSKYDVVPELQPAGAIYFMMDEPDVQRILAFGPTMIGSDGLPHDERPHPRLWGTFPRVLGHYARDLGLFPLETAVWKMTGLTAARFGLAGRGQLQAGYFADLVVFDPATVADTATFEHPTERAAGIHSVYVNGAPVWQEQAFTGQHAGRVLARTAA
modifications: Alcaligenes denitrificans subsp. xylosoxydans MI-4
[13]
  D-aminoacylase activity of cell extract: 86 U/mg
